# Assay results published in patent publication US12589143B2, “Human anti-PD-L1 peptide vaccines and methods of their use” (priority 2019, dated 2026).
# Several values for one entry are separate records, joined by “and”; a condition that tells them apart may be missing. Equal values may be shown once. Where no end group is shown, it is not given here.
# System: MVF-PD-L1 peptide immunogen
# Assay: Immunogenicity in Balb/c mice, experiment 1 (CT26 WT): ELISA of sera vs each MVF-PD-L1 peptide immunogen
# Assay type: in vivo
# Conditions: for Immunogenicity (titers) 1′ Conc. 1:: Balb/c mice
# Protocol: Immunogenicity of MVF-PD-L1 B-cell epitopes. New Zealand White rabbits were immunized with 1 mg of each MVF-peptide immunogens dissolved in dd H2O emulsified (1:1) in Montanide ISA 720 vehicle (Seppic) with 333 μg of N-acetylglucosamine-3yl-acetyl-1-alanyl-d-isoglutamine (nor-MDP). Rabbits were boosted with the same doses at 3-week's intervals. Blood was collected via the central auricular artery in rabbits. Blood was collected weekly (1Y+3, 2Y+1, 2Y+2,2Y+3, 3Y+1, 3Y+2 and sera tested for antibody titers by ELISA using the immunogens MVF-PD-L1 peptides. Sera (terminal) from rabbit (3Y+3) immunized with MVF-PD-1 peptide immunogens were tested individually versus the immunogen by ELISA. 200 ng/well peptide were used in duplicates to coat the ELISA plates. Titers are defined as the highest dilution of sera with an absorbance value of 0.2 after subtracting the blank.
# FIGS. 5A, 5B, 5C, and 5D show the experimental scheme to test the immunization with PD-L1 in Balb/c mice. […] Balb/c mice 6-8 weeks old, were immunized with MVF-peptide immunogens emulsified in ISA 720 with nor-MDP three times and three weeks apart. Mice were immunized with MVF-PD-L1 vaccine constructs [PD-L1(36-53), PD-L1(50-67), PD-L1(95-112), PD-L1(130-147)] prior to tumor challenge. Blood was collected weekly and sera tested for antibody titers by ELISA. Two weeks after the third immunization (3Y), the mice were engrafted with CT26 WT tumor cells 10^5 per mouse Control mice were treated twice weekly with PBS as negative control and twice weekly with anti-mPD-L1 mAb (10F.9G2) as positive control starting 2 days after tumor challenge. Tumor growths were observed twice weekly and measured by calipers.
# Immunogenicity of MVF-PD-L1 peptides in BALB/c mice immunized with various peptide constructs. Sera collected weekly were tittered against each individual MVF-PD-L1 peptide immunogen. The Pink bar refers to titers versus PD-L1 130 and the red bar refers to titers versus PD-1 (92-110).
# In order to verify the efficacy of the PD-L1 epitope vaccines in vivo in the CT26 carcinoma cell line, Balb/c mice (10 mice/group) were immunized with 100 μg each of MVF-PD-L1 (36-53), MVF-PD-L1 (50-67), MVF-PD-L1 (95-112) and MVF-PD-L1 (130-147) emulsified with nor-MDP and Montanide 720 (1:1 ratio) SCHEME 1A (FIG. 5A). As detailed in SCHEME 1A-D (FIGS. 5A, 5B, 5C, and 5D), mice were immunized 3 times at 3 weeks intervals. […] All PD-L1 epitopes elicited high titers of PD-L1 anti-peptide antibodies by ELISA. […] We also investigated the combination of PD-1(92-110) with PD-L1-130-147.
# For each peptide, vaccine antibodies were raised in New Zealand white rabbits, purchased from Charles River Laboratories (Wilmington, MA, USA). Rabbits were immunized with 1 mg of MVF chimeric peptide emulsified in Montanide ISA 720 (Seppic, Paris, France) and boosted 3 times at three week intervals. For mouse experiments, mice, 6-8 weeks old, were immunized with 0.1 mg of peptide emulsified in ISA720 (1:1 ratio). Mice were boosted with the respective doses at 3-week intervals. Blood was then collected and sera were tested for antibody titers. Sera were collected weekly and peptide vaccine antibodies were purified by affinity chromatography using a protein A/G column and the concentration was measured using Spectrophometer. All experiments were performed in accordance with the U.S. Public Health Service Policy on Humane Care and Use of Laboratory animals and approved by the Ohio State University Institutional Animals Care and Use Committee, detailed in the accepted protocol.
# 6-8 weeks old BALB/c mice (Charles River, Wilmington, MA) were used as standard animal models. Mouse CT26 colon carcinoma cell line was purchased from American Type Culture Collection Cells and were regularly cultured in RPMI1640 medium containing 10% FBS. CT26/HER2 cells were kindly provided by M. Penichet. Vaccines were dissolved in sterile water and emulsified in Montanide ISA 720 (1:1). […]
sequence,measurement,setting,value
KLLSLIKGVIVHRLEGVEGPSLLIVYWEMEDKNIIQFVHG (KLLSLIKGVIVHRLEGVEGPSLLIVYWEMEDKNIIQFVHG-NH2) [PD-L1(36)],Immunogenicity (titers) 1′ Conc. 1:,bleed 1Y + 3,400
same,Immunogenicity (titers) 1′ Conc. 1:,bleed 2Y + 1,1600
same,Immunogenicity (titers) 1′ Conc. 1:,bleed 2Y + 2,6400
same,Immunogenicity (titers) 1′ Conc. 1:,bleed 2Y + 3,16000
same,Immunogenicity (titers) 1′ Conc. 1:,bleed 3Y + 1,16000
same,Immunogenicity (titers) 1′ Conc. 1:,bleed 3Y + 2,16000
same,Immunogenicity (titers) 1′ Conc. 1:,bleed 3Y + 3,16000
same,ELISA absorbance of sera,"bleed 1Y + 3 (1to100), dilution 100",0.598 and 0.583
same,ELISA absorbance of sera,"bleed 1Y + 3 (1to100), dilution 200",0.352 and 0.300
same,ELISA absorbance of sera,"bleed 1Y + 3 (1to100), dilution 400",0.212 and 0.200
same,ELISA absorbance of sera,"bleed 1Y + 3 (1to100), dilution 800",0.117 and 0.088
same,ELISA absorbance of sera,"bleed 1Y + 3 (1to100), dilution 1,600",0.063 and 0.046
same,ELISA absorbance of sera,"bleed 1Y + 3 (1to100), dilution 3,200",0.032 and 0.027
same,ELISA absorbance of sera,"bleed 1Y + 3 (1to100), dilution 6,400",0.014 and 0.010
same,ELISA absorbance of sera,"bleed 1Y + 3 (1to100), dilution 12,800",0.010 and 0.006
same,ELISA absorbance of sera,"bleed 2Y + 1 (1to100), dilution 100",1.031 and 0.901
same,ELISA absorbance of sera,"bleed 2Y + 1 (1to100), dilution 200",0.815 and 0.784
same,ELISA absorbance of sera,"bleed 2Y + 1 (1to100), dilution 400",0.601 and 0.591
same,ELISA absorbance of sera,"bleed 2Y + 1 (1to100), dilution 800",0.408 and 0.394
same,ELISA absorbance of sera,"bleed 2Y + 1 (1to100), dilution 1,600",0.273 and 0.203
same,ELISA absorbance of sera,"bleed 2Y + 1 (1to100), dilution 3,200",0.163 and 0.116
same,ELISA absorbance of sera,"bleed 2Y + 1 (1to100), dilution 6,400",0.090 and 0.067
same,ELISA absorbance of sera,"bleed 2Y + 1 (1to100), dilution 12,800",0.049 and 0.031
same,ELISA absorbance of sera,"bleed 2Y + 2 (1to100), dilution 100",1.281 and 1.251
same,ELISA absorbance of sera,"bleed 2Y + 2 (1to100), dilution 200",1.162 and 1.137
same,ELISA absorbance of sera,"bleed 2Y + 2 (1to100), dilution 400",1.033 and 1.019
same,ELISA absorbance of sera,"bleed 2Y + 2 (1to100), dilution 800",0.975 and 0.820
same,ELISA absorbance of sera,"bleed 2Y + 2 (1to100), dilution 1,600",0.691 and 0.602
same,ELISA absorbance of sera,"bleed 2Y + 2 (1to100), dilution 3,200",0.460 and 0.389
same,ELISA absorbance of sera,"bleed 2Y + 2 (1to100), dilution 6,400",0.299 and 0.248
same,ELISA absorbance of sera,"bleed 2Y + 3 (1to1k), dilution 100",0.855 and 0.817
same,ELISA absorbance of sera,"bleed 2Y + 3 (1to1k), dilution 200",0.695 and 0.612
same,ELISA absorbance of sera,"bleed 2Y + 3 (1to1k), dilution 400",0.530 and 0.500
same,ELISA absorbance of sera,"bleed 2Y + 3 (1to1k), dilution 800",0.393 and 0.359
same,ELISA absorbance of sera,"bleed 2Y + 3 (1to1k), dilution 1,600",0.273 and 0.257
same,ELISA absorbance of sera,"bleed 2Y + 3 (1to1k), dilution 3,200",0.155 and 0.146
same,ELISA absorbance of sera,"bleed 2Y + 3 (1to1k), dilution 6,400",0.074 and 0.049
same,ELISA absorbance of sera,"bleed 3Y + 1 (1to1k), dilution 100",0.966 and 0.923
same,ELISA absorbance of sera,"bleed 3Y + 1 (1to1k), dilution 200",0.785 and 0.691
same,ELISA absorbance of sera,"bleed 3Y + 1 (1to1k), dilution 400",0.599 and 0.565
same,ELISA absorbance of sera,"bleed 3Y + 1 (1to1k), dilution 800",0.444 and 0.406
same,ELISA absorbance of sera,"bleed 3Y + 1 (1to1k), dilution 1,600",0.308 and 0.291
same,ELISA absorbance of sera,"bleed 3Y + 1 (1to1k), dilution 3,200",0.175 and 0.165
same,ELISA absorbance of sera,"bleed 3Y + 1 (1to1k), dilution 6,400",0.084 and 0.056
same,ELISA absorbance of sera,"bleed 3Y + 2 (1to1k), dilution 100",1.202 and 1.225
same,ELISA absorbance of sera,"bleed 3Y + 2 (1to1k), dilution 200",0.934 and 0.949
same,ELISA absorbance of sera,"bleed 3Y + 2 (1to1k), dilution 400",0.658 and 0.662
same,ELISA absorbance of sera,"bleed 3Y + 2 (1to1k), dilution 800",0.405 and 0.424
same,ELISA absorbance of sera,"bleed 3Y + 2 (1to1k), dilution 1,600",0.240 and 0.228
same,ELISA absorbance of sera,"bleed 3Y + 2 (1to1k), dilution 3,200",0.151 and 0.130
same,ELISA absorbance of sera,"bleed 3Y + 2 (1to1k), dilution 6,400",0.077
same,ELISA absorbance of sera,"bleed 3Y + 3 (1to1k), dilution 100",1.269 and 1.387
same,ELISA absorbance of sera,"bleed 3Y + 3 (1to1k), dilution 200",0.919 and 1.048
same,ELISA absorbance of sera,"bleed 3Y + 3 (1to1k), dilution 400",0.666 and 0.772
same,ELISA absorbance of sera,"bleed 3Y + 3 (1to1k), dilution 800",0.418 and 0.430
same,ELISA absorbance of sera,"bleed 3Y + 3 (1to1k), dilution 1,600",0.246 and 0.257
same,ELISA absorbance of sera,"bleed 3Y + 3 (1to1k), dilution 3,200",0.081 and 0.119
same,ELISA absorbance of sera,"bleed 3Y + 3 (1to1k), dilution 6,400",0.025
